Experimental findings from publication PMC4819177, “The rational search for selective anticancer derivatives of the peptide Trichogin GA IV: a multi-technique biophysical approach” (Scientific Reports, 2016) are described below.

Series [1] concerns T67 human glioma cell line. In kind it is cell-based. As to conditions: MTT, 24 h exposure; average error about ±2 μM. The protocol:
(§1) We studied the effect of TG and its analogues on normal (HDF) and transformed (T67 and HeLa) cells. The cellular viability was assessed after 24 hours of exposure to the peptides by the MTT assay (Table 1).
(§2) Culture media, foetal bovine serum (FBS) and antibiotics were purchased from Carlo Erba Dasit Group. The T67 human glioma cell line was derived by Lauro et al.[49] from a World Health Organization (WHO) Grade III gemistocytic astrocytoma. Human dermal fibroblasts (HDF) were obtained by ATCC. HDF were cultured in Fibroblast Basal Medium (ATCC) supplemented with 10% FBS. T67 and HeLa cells were cultured in Dulbecco’s modified Eagle’s medium (MMedical) supplemented with 10% FBS, 100 UI/ml penicillin, 100 μg/ml streptomycin, and 40 μg/ml gentamycin, and kept in a 5% CO2 atmosphere at 37 °C, with saturating humidity. Cell viability and number were measured by trypan blue exclusion method.
(§3) Cytotoxicity of peptides was estimated using a MTT assay. All the chemicals used for this assay have been purchased by sigma Aldrich and used without further purification. T67, HeLa and HDF cells were seeded in 24-well plates at 1 × 10^5 cells/well. Experiments were performed after 24 h of incubation at 37 °C in 5% CO2. After this time cells were washed and treated for 24 h with different concentrations of peptides; the cells are then incubated for 60 mins with 300 μM of MTT in culture medium. The absorbance of each well was measured at 450 nm with a spectrofluorometer (Wallac Victor multilabel counter; Perkin-Elmer Inc., Boston, MA, USA). Data are reported as the mean ± standard deviation of at least three independent experiments.

Series [2] concerns human dermal fibroblasts (HDF). In kind it is cell-based. As to conditions: MTT, 24 h exposure; average error about ±2 μM. As for the experimental part: as §1, §2, §3
Series [3] relates to HeLa cells. Format: cell-based, human. As to conditions: MTT, 24 h exposure; average error about ±2 μM. As for the experimental part: as §1, §2, §3
For a further series, the system named is T67, HeLa and HDF cells. Briefly: MTT cytotoxicity assay, summary over the three cell lines. In kind it is cell-based, human. The settings on record: 24 h. The protocol:
as §1, §3

A short description of series [4]: Dynamic light scattering of POPC SUV with peptides. In kind it is physicochemical. As to conditions: POPC SUV 2 mM, P:L 1:100. As for the experimental part:
The dimension of the SUV prepared by sonication was verified by dynamic light scattering (DLS). Additionally we checked if the peptides at a P:L ratio 1:100, the ratio used for EPR experiments, alter the dimension of the SUV. The experiments were perfomed on POPC SUV (2 mM) with and without peptides. We chose a toxic peptide, [Arg^2] TG, and a non-toxic peptide, [Leu^4] TG. The average diameter of the SUV in this preparation is about 21±6 nm (when counting the size distribution by numer).

The subject of series [5] is HeLa cells. Briefly: Fluorescence microscopy of FITC-labelled peptides. Format: cell-based, human. The settings on record: 0.5 μM, 3 hours; for state of the cells / membrane lysis: bright field; for cellular localization of the fluorescent label: green fluorescence. As for the experimental part: HeLa cells were treated for 3 hours with 0.5 μM of TG and [Lys^6] […] The cells treated with [FITC^11] […] Conversely, treatment with [Lys^6, FITC^11] […] It has been shown that some AMP act not on the plasma membrane, but on the mitochondria.
HeLa cells were washed with PBS (NaCl 137 mM, KCl 2.7 mM, Na2HPO4 10 mM, KH2PO4 1.8 mM, pH 7.4), detached with 0.05% trypsin–EDTA solution and centrifuged for 3 min at 300 × g. The pellet was resuspended in DMEM medium and cells were counted by using trypan blue exclusion method. Then, 5 × 10^3 cells were seeded on custom chambers[58] with glass bottom, in 100 μL of complete DMEM medium and incubated at 37 °C in a humidified atmosphere with 5% CO2. After 24 h, cells were washed with PBS and incubated for 3 hours with […] of [FITC^11] TG and [Lys^6, FITC^11] TG dissolved in DMEM. After this time, cells were carefully washed with PBS, then 50 μL of PBS supplemented with calcium and magnesium (NaCl 137 mM, KCl 2.7 mM, Na2HPO4 10 mM, KH2PO4 1.8 mM, CaCl2 1 mM, MgCl2 0.5 mM, pH 7.4) was added to each chamber. Finally, chambers were mounted on the microscope stage for analysis. Micrographs were acquired on a Zeiss Axiovert 200 inverted microscope equipped with XBO xenon 75 W short arc lamp and a Photometrics Coolsnap FX CCD camera (Roper Scientific) with Metafluor Imaging Software version 6.1r6 (Universal Imaging Inc.) at λexc = 500 nm, λem = 545 nm.
We performed fluorescence microscopy experiments with rhodamine, which selectively stains mitochondria, to exclude that TG analogs penetrate inside the mitochondria and are localized only on the plasmatic membrane. Rhodamine staining is shown in FigureS5.B in red. The merged images of the experiments on [FITC^11]

Entries after “also recorded” stand apart in the source; their conditions may differ. Square brackets hold non-standard residues; d marks the D form. Peptide text beside a SMILES is read from it. * marks the point of attachment. TOAC = CC1(C)CC(N)(C(=O)O)CC(C)(C)N1[O]; Leu(ol) = CC(C)C[C@H](N)CO; Octanoyl = CCCCCCCC(=O)*; Api = NC1(C(=O)O)CCNCC1; Aib = CC(C)(N)C(=O)O

By EC50 is commonly meant the midpoint of the concentration-response curve. Lower therefore signals a more potent agent. As for `CCCCCCCC(=O)NC(C)(C)C(=O)NCC(=O)N[C@@H](CC(C)C)C(=O)NC(C)(C)C(=O)NCC(=O)NCC(=O)N[C@@H](CC(C)C)C(=O)NC(C)(C)C(=O)NCC(=O)N[C@H](C(=O)N[C@H](CO)CC(C)C)[C@@H](C)CC` [TG, 1-Oct-Aib-Gly-Leu-Aib-Gly-Gly-Leu-Aib-Gly-Ile-Lol, reference compound] (Octanoyl-[Aib]GL[Aib]GGL[Aib]GI[Leu(ol)]), the figures for the EC50 (in series [1]; in series [2]; in the series with HeLa cells [3]) were 2 µM, 4 µM and 8 µM, respectively.

On to `CCCCCCCC(=O)NC(C)(C)C(=O)NCC(=O)N[C@@H](CC(C)C)C(=O)NC(C)(C)C(=O)NCC(=O)NCC(=O)N[C@@H](CC(C)C)C(=O)NC1(C(=O)NCC(=O)N[C@H](C(=O)N[C@H](CO)CC(C)C)[C@@H](C)CC)CCNCC1` [[Api^8] TG, Oct-UGLUGGLZGI-Lol] (Octanoyl-[Aib]GL[Aib]GGL[Api]GI[Leu(ol)]), for which the EC50 (in series [2]; in the series with HeLa cells [3]) was greater than 20 µM in each case. In addition, the “cytotoxicity / selectivity in words” value with T67, HeLa and HDF cells is “selective cytotoxicity towards a cancer cell line”.

For `CCCCCCCC(=O)NC(C)(C)C(=O)N[C@@H](CCCNC(=N)N)C(=O)N[C@@H](CC(C)C)C(=O)NC(C)(C)C(=O)NCC(=O)NCC(=O)N[C@@H](CC(C)C)C(=O)NC(C)(C)C(=O)NCC(=O)N[C@H](C(=O)N[C@H](CO)CC(C)C)[C@@H](C)CC` [[Arg^2] TG, Oct-URLUGGLUGI-Lol] (Octanoyl-[Aib]RL[Aib]GGL[Aib]GI[Leu(ol)]), in series [4], the “DLS Distribution by Number Peak 1, diameter” value worked out at 24 nm; the “DLS Distribution by Number Peak 1, fraction” value stood at 100%; the “DLS Distribution by Volume Peak 1, diameter” value worked out at 28 nm; the “DLS Distribution by Volume Peak 1, fraction” value stood at 92%. In series [4], the “DLS Distribution by Volume Peak 2, diameter” value stood at 5430 nm; the “DLS Distribution by Volume Peak 2, fraction” value was 3%; the “DLS Distribution by Volume Peak 3, diameter” value is recorded as 135 nm; the “DLS Distribution by Volume Peak 3, fraction” value was determined as 5%. Besides, the “effect of peptide on the dimension of the vesicles” value in series [4] is listed as “does not alter the dimension of the vesicles in a significant way”. In series [1], this molecule had an EC50 of 8 µM. The molecule further registered an EC50 in series [2] of 8 µM. Moreover, the midpoint of the response in the series with HeLa cells [3], the EC50, lay at 4 µM.

For `CCCCCCCC(=O)NC(C)(C)C(=O)NCC(=O)N[C@@H](CC(C)C)C(=O)NC(C)(C)C(=O)NCC(=O)N[C@@H](CCCCN)C(=O)N[C@@H](CC(C)C)C(=O)NC(C)(C)C(=O)NCC(=O)N[C@H](C(=O)N[C@H](CO)CC(C)C)[C@@H](C)CC` [[Lys^6] TG, Oct-UGLUGKLUGI-Lol], the 50% effective concentration (EC50) in series [1] was found to be 4 µM; in series [2], 2 µM; with HeLa cells [3] it was 2 µM.

Consider `CCCCCCCC(=O)NC1(C(=O)N[C@@H](CCCNC(=N)N)C(=O)N[C@@H](CC(C)C)C(=O)NC(C)(C)C(=O)NCC(=O)NCC(=O)N[C@@H](CC(C)C)C(=O)NC(C)(C)C(=O)NCC(=O)N[C@H](C(=O)N[C@H](CO)CC(C)C)[C@@H](C)CC)CC(C)(C)N([O])C(C)(C)C1` [[TOAC^1, Arg^2] TG, Oct-XRLUGGLUGI-Lol] (Octanoyl-[TOAC]RL[Aib]GGL[Aib]GI[Leu(ol)]), for which the half-maximal effective concentration (EC50) stood at 8 µM in series [1], 15 µM in series [2] and 9 µM in the series with HeLa cells [3].

As to `CCCCCCCC(=O)NC1(C(=O)NCC(=O)N[C@@H](CC(C)C)C(=O)NC(C)(C)C(=O)NCC(=O)NCC(=O)N[C@@H](CC(C)C)C(=O)NC(C)(C)C(=O)N[C@@H](CCCNC(=N)N)C(=O)N[C@H](C(=O)N[C@H](CO)CC(C)C)[C@@H](C)CC)CC(C)(C)N([O])C(C)(C)C1` [[TOAC^1, Arg^9] TG, Oct-XGLUGGLURI-Lol] (Octanoyl-[TOAC]GL[Aib]GGL[Aib]RI[Leu(ol)]), the EC50 in series [1] came to 8 µM; in series [2], 8 µM; with HeLa cells [3], 5 µM.

Regarding `CCCCCCCC(=O)NC1(C(=O)NCC(=O)N[C@@H](CC(C)C)C(=O)N[C@@H](CC(C)C)C(=O)NCC(=O)NCC(=O)N[C@@H](CC(C)C)C(=O)NC(C)(C)C(=O)NCC(=O)N[C@H](C(=O)N[C@H](CO)CC(C)C)[C@@H](C)CC)CC(C)(C)N([O])C(C)(C)C1` [[TOAC^1, Leu^4] TG, Oct-XGLLGGLUGI-Lol] (Octanoyl-[TOAC]GLLGGL[Aib]GI[Leu(ol)]), the “cytotoxicity / selectivity in words” value with T67, HeLa and HDF cells is listed as “no toxicity”.

For `CCCCCCCC(=O)NC1(C(=O)NCC(=O)N[C@@H](CC(C)C)C(=O)NC(C)(C)C(=O)N[C@@H](CCCCN)C(=O)N[C@@H](CCCCN)C(=O)N[C@@H](CC(C)C)C(=O)NC(C)(C)C(=O)NCC(=O)N[C@H](C(=O)N[C@H](CO)CC(C)C)[C@@H](C)CC)CC(C)(C)N([O])C(C)(C)C1` [[TOAC^1, Lys^5,6] TG, Oct-XGLUKKLUGI-Lol], the figures for the concentration giving a half-maximal response (EC50) (in series [1]; in series [2]; in the series with HeLa cells [3]) were 10 µM, 15 µM and 6 µM, respectively.

Regarding `CCCCCCCC(=O)NC1(C(=O)NCC(=O)N[C@@H](CC(C)C)C(=O)NC(C)(C)C(=O)NCC(=O)N[C@@H](CCCCN)C(=O)N[C@@H](CC(C)C)C(=O)NC(C)(C)C(=O)NCC(=O)N[C@H](C(=O)N[C@H](CO)CC(C)C)[C@@H](C)CC)CC(C)(C)N([O])C(C)(C)C1` [[TOAC^1, Lys^6] TG, Oct-XGLUGKLUGI-Lol], the values for the concentration giving a half-maximal response (EC50) (in series [1]; in series [2]; with HeLa cells [3]) were 1 µM, 5 µM and 3 µM, respectively. Further, in the series on T67, HeLa and HDF cells, the “cytotoxicity / selectivity in words” value is recorded as “most toxic peptide on all the cell lines”.

Oct-UGLLGGLUGI-Lol [[Leu^4] TG]: in series [4], the “DLS Distribution by Number Peak 1, diameter” value is 20 nm; the “DLS Distribution by Number Peak 1, fraction” value came out at 100%; the “DLS Distribution by Volume Peak 1, diameter” value was determined as 30 nm; the “DLS Distribution by Volume Peak 1, fraction” value is on record as 96%. Moreover, in series [4], the “DLS Distribution by Volume Peak 2, diameter” value is 4993 nm; the “DLS Distribution by Volume Peak 2, fraction” value is 4%; the “effect of peptide on the dimension of the vesicles” value is “does not alter the dimension of the vesicles in a significant way”. Also, the concentration for a half-maximal effect (EC50) in series [1] is greater than 20 µM. The concentration giving a half-maximal response (EC50) in series [2] was greater than 20 µM. Also, in the series with HeLa cells [3], the EC50 was greater than 20 µM.

Regarding Oct-UGLUGGLUGIL-FITC [[FITC^11] TG], in the series with HeLa cells [5], the “state of the cells / membrane lysis” value is recorded as “keeps the cells intact; also recorded: largely intact” and the “cellular localization of the fluorescent label” value is “mainly located in the outer plasma membrane”. The “colocalization with rhodamine (mitochondria)” value in the series with HeLa cells [5] (rhodamine staining) is recorded as “no significant colocalization”.

Turning to “Oct-UGLUGKLUGIL- FITC [[Lys^6, FITC^11] TG]”, in the series with HeLa cells [5], the “state of the cells / membrane lysis” value is “severe membrane lysis” and the “cellular localization of the fluorescent label” value is “mainly located in the outer plasma membrane”.

For the molecule Oct-XGLUGGLLGI-Lol [[TOAC^1, Leu^8] TG], the EC50 (in series [1]; in series [2]; with HeLa cells [3]) was greater than 20 µM in each case.
